Values quoted from earlier work in patent publication US8288366B2, “Formulation for hair growth” (priority 2006, dated 2012).

Test system: mice with a mutant hairless gene
Conditions: applied topically

## N[C@@H](Cc1cc(I)c(Oc2ccc(O)c(I)c2)c(I)c1)C(=O)O [T3, triiodothyronine]
  hair growth: stimulate hair growth
